Series [1] has as its system AT1 cells. The series is described as follows: 24-hour cytocompatibility (MTS and Picogreen dsDNA). The following applies: 10 μM. Type of series: cell-based, human. As for the experimental part:
(§1) Human dermal fibroblasts (HDFs) and AT1 cells were seeded at a density of 5000 cells/well in a 96 well plate and allowed to attach at 37° C. and 5% CO2 for 24 hours. […] Following incubation, the cells were washed with 1× sterile PBS and cell viability was assessed using MTS and Picogreen dsDNA assays (e.g., available from Life Technologies, located in Grand Island, N.Y.) according to manufacturer's instructions. MTS assay measures the percentage of cells alive in each well compared to the controls. These findings were validated using Picogreen dsDNA assay which calculates the amount of total cell DNA present in each well compared to the control.

Series [2] relates to folate receptors on H460 lung cancer cells. Description: Folic acid binding, Resonant Sensors Bioassay (peak shift). The following applies: 0-15 μM, 3 hours. As for the experimental part: (§2) The binding of folic acid to folate receptors was studied using Resonant Sensors Bioassay system (e.g., available from Resonant Sensors Inc. (RSI), located in Arlington, Tex.). A549 and H460 lung cancer cells as well as AT1 cells were seeded at a density of 10,000 cells/well in RSI sensor 96-well plates, which were incubated at […] for 24 hours to allow cell attachment. For folic acid binding efficiency studies, the cells were incubated with folic acid at varying concentrations (i.e., 0, 0.1, 1, 5, 10, 15 μM) for 3 hours in the RSI system and peak shift with cell binding over time was studied.

Series [3] concerns folate receptors on A549 lung cancer cells. The description is as above. The following applies: 0-15 μM, 3 hours. As for the experimental part: as §2
Series [4] relates to human dermal fibroblasts (HDFs). Description: 24-hour cytocompatibility (MTS and Picogreen dsDNA). It counts as cell-based. The following applies: 10 μM. As for the experimental part:
as §1

The subject of series [5] is folate receptors on AT1 cells. The series is described as follows: Folic acid binding, Resonant Sensors Bioassay (peak shift). Also noted: species or system human. The following applies: 0-15 μM, 3 hours. As for the experimental part:
as §2

Series [6] relates to human AT1 cells. Description: Cell activation study: intracellular ROS production (H2DCFDA). Type of series: cell-based. The following applies: positive control, 10 μg/ml. As for the experimental part: A cell activation study was conducted to determine whether NP uptake causes oxidative stress in the cells in vitro. For example, human AT1 cells were seeded in tissue culture plates and incubated overnight as described earlier. The next day, cells were exposed to two different concentrations of each NP (250 μg/ml and 1000 μg/ml) and incubated for another 24 hours. Cells exposed to 10 μg/ml lipopolysaccharide (LPS) were considered as a positive control while cells exposed to media only served as the negative control. To detect the Intracellular Reactive Oxygen Species (ROS) production on NP exposure, cells were then washed thrice with PBS and incubated with 5 μM of 2′,7′-dichlorodihydrofluorescein diacetate (H2DCFDA) solution in PBS for 30 minutes. The cells were then washed again with PBS and fluorescence was measured at λex of 485 nm and […] using a spectrophotometer.
(§3) To study cytokine production, the concentration of interleukin-1 alpha (IL-1∞), interleukin-1 beta (IL-1β), interleukins 2, 4, 6, 8, 10, 12, 10A, and tumor necrosis factor-alpha (TNF-α) in the medium was measured using Multi-Analyte ELISAArray Kit (SA Biosciences, Frederick, Md.) according to the manufacturer's directions.

Series [7] relates to AT1 cells. Description: Cell activation study: cytokine ELISA. It counts as cell-based, human. The following applies: 24 hours; MDNPs at 1 mg/mL; LPS positive control. As for the experimental part: as §3
The cells stimulated using LPS (positive control) produced 0.25 ng/ml IL-6, 1.27 ng/ml IL-8, 0.24 ng/ml IL-10 and 0.11 ng/ml TNF-α inflammatory cytokines.

As to `Nc1nc2ncc(CNc3ccc(C(=O)N[C@@H](CCC(=O)O)C(=O)O)cc3)nc2c(=O)[nH]1` [folic acid], the “cytocompatibility (MTS)” value in series [1] and in series [4] was “non-toxic” throughout. Moreover, the figures for the peak shift result in series [2], in series [3] and in series [5] were “comparatively larger peak shift”, “increase in peak shift” and “no dose-dependent increase in peak shift”, respectively.
With lipopolysaccharide [LPS], the “ROS production, % of the control” value in series [6] was 425%. In series [7], this compound returned an IL-6 produced of 0.25 ng/mL, an IL-8 produced of 1.27 ng/mL, an IL-10 produced of 0.24 ng/mL and a TNF-α produced of 0.11 ng/mL.

The record behind these values is US10765745B2, “Multifunctional nanoparticle systems and methods for cancer diagnosis and combination therapy” (BOARD OF REGENTS, THE UNIVERSITY OF TEXAS SYSTEM, priority 2015, dated 2020).
